Assay results: patent publication US10213433B2 (AbbVie Inc., priority 2010, dated 2019)

biological target: Bcl-2 protein (Homo sapiens (Human), UniProt P10415); test: Bcl-2 binding TR-FRET (Time-Resolved Fluorescence-Resonance-Energy-Transfer) assay; conditions: inhibition constant for binding to Bcl-2 protein
Excerpt: The smaller the Ki value, the greater is the binding affinity.

Sequence of Bcl-2 protein (P10415 whole entry): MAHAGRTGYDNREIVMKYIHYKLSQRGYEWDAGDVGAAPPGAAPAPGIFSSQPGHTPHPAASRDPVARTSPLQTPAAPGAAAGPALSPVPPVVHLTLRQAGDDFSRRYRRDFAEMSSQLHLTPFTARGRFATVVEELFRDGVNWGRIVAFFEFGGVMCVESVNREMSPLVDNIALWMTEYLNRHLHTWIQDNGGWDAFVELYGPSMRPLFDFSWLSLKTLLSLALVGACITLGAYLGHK

Row | Compound | Ki
1 | O=C(NS(=O)(=O)c1ccc(NCCCN2CCOCC2)c([N+](=O)[O-])c1)c1ccc(N2CCN(Cc3ccccc3-c3ccc(Cl)cc3)CC2)cc1Oc1cnc2[nH]ccc2c1 [Compound 2, 4-{4-[(4′-chloro-1,1′-biphenyl-2-yl)methyl]piperazin-1-yl}-N-({4-[(3-morpholin-4-ylpropyl)amino]-3-nitrophenyl}sulfonyl)-2-(1H-pyrrolo[2,3-b]pyridin-5-yloxy)benzamide] | < 10 pM
2 | CN1CCC(Nc2ccc(S(=O)(=O)NC(=O)c3ccc(N4CCN(CC5=C(c6ccc(Cl)cc6)CC(C)(C)CC5)CC4)cc3Oc3cnc4[nH]ccc4c3)cc2[N+](=O)[O-])CC1 [Compound 4, 4-(4-{[2-(4-chlorophenyl)-4,4-dimethylcyclohex-1-en-1-yl]methyl}piperazin-1-yl)-N-({4-[(1-methylpiperidin-4-yl)amino]-3-nitrophenyl}sulfonyl)-2-(1H-pyrrolo[2,3-b]pyridin-5-yloxy)benzamide] | < 10 pM
3 | COCCNc1ccc(S(=O)(=O)NC(=O)c2ccc(N3CCN(CC4=C(c5ccc(Cl)cc5)CC(C)(C)CC4)CC3)cc2Oc2cnc3[nH]ccc3c2)cc1[N+](=O)[O-] [Compound 10, 4-(4-{[2-(4-chlorophenyl)-4,4-dimethylcyclohex-1-en-1-yl]methyl}piperazin-1-yl)-N-({4-[(2-methoxyethyl)amino]-3-nitrophenyl}sulfonyl)-2-(1H-pyrrolo[2,3-b]pyridin-5-yloxy)benzamide] | < 10 pM
4 | CC1(C)CCC(CN2CCN(c3ccc(C(=O)NS(=O)(=O)c4ccc(NC[C@H]5CCCOC5)c([N+](=O)[O-])c4)c(Oc4cnc5[nH]ccc5c4)c3)CC2)=C(c2ccc(Cl)cc2)C1 [Compound 13, 4-(4-{[2-(4-chlorophenyl)-4,4-dimethylcyclohex-1-en-1-yl]methyl}piperazin-1-yl)-N-[(3-nitro-4-{[(3R)-tetrahydro-2H-pyran-3-ylmethyl]amino}phenyl)sulfonyl]-2-(1H-pyrrolo[2,3-b]pyridin-5-yloxy)benzamide] | < 10 pM
5 | CC1(C)CC(c2ccc(Cl)cc2)=C(CN2CCN(c3ccc(C(=O)NS(=O)(=O)c4ccc(NCC5CCOCC5)c([N+](=O)[O-])c4)c(Oc4cnc5[nH]ccc5c4)c3)CC2)CO1 [Compound 15, 4-(4-{[4-(4-chlorophenyl)-6,6-dimethyl-5,6-dihydro-2H-pyran-3-yl]methyl}piperazin-1-yl)-N-({3-nitro-4-[(tetrahydro-2H-pyran-4-ylmethyl)amino]phenyl}sulfonyl)-2-(1H-pyrrolo[2,3-b]pyridin-5-yloxy)benzamide] | < 10 pM
6 | CC1(C)CCC(CN2CCN(c3ccc(C(=O)NS(=O)(=O)c4ccc(NCC5COCCO5)c([N+](=O)[O-])c4)c(Oc4cnc5[nH]ccc5c4)c3)CC2)=C(c2ccc(Cl)cc2)C1 (centres unmarked) [Compound 25, 4-(4-{[2-(4-chlorophenyl)-4,4-dimethylcyclohex-1-en-1-yl]methyl}piperazin-1-yl)-N-({4-[(1,4-dioxan-2-ylmethyl)amino]-3-nitrophenyl}sulfonyl)-2-(1H-pyrrolo[2,3-b]pyridin-5-yloxy)benzamide] | < 10 pM
7 | CC1(C)CCC(CN2CCN(c3ccc(C(=O)NS(=O)(=O)c4ccc(OC[C@@H]5COCCO5)c([N+](=O)[O-])c4)c(Oc4cnc5[nH]ccc5c4)c3)CC2)=C(c2ccc(Cl)cc2)C1 [Compound 28, 4-(4-{[2-(4-chlorophenyl)-4,4-dimethylcyclohex-1-en-1-yl]methyl}piperazin-1-yl)-N-({4-[(2S)-1,4-dioxan-2-ylmethoxy]-3-nitrophenyl}sulfonyl)-2-(1H-pyrrolo[2,3-b]pyridin-5-yloxy)benzamide] | < 10 pM
8 | CC1(C)CCC(CN2CCN(c3ccc(C(=O)NS(=O)(=O)c4ccc(OC[C@H]5COCCO5)c([N+](=O)[O-])c4)c(Oc4cnc5[nH]ccc5c4)c3)CC2)=C(c2ccc(Cl)cc2)C1 [Compound 30, 4-(4-{[2-(4-chlorophenyl)-4,4-dimethylcyclohex-1-en-1-yl]methyl}piperazin-1-yl)-N-({4-[(2R)-1,4-dioxan-2-ylmethoxy]-3-nitrophenyl}sulfonyl)-2-(1H-pyrrolo[2,3-b]pyridin-5-yloxy)benzamide] | < 10 pM
9 | CC1(C)CC(c2ccc(Cl)cc2)=C(CN2CCN(c3ccc(C(=O)NS(=O)(=O)c4ccc(NCC5COCCO5)c([N+](=O)[O-])c4)c(Oc4cnc5[nH]ccc5c4)c3)CC2)CO1 (centres unmarked) [Compound 31, 4-(4-{[4-(4-chlorophenyl)-6,6-dimethyl-5,6-dihydro-2H-pyran-3-yl]methyl}piperazin-1-yl)-N-({4-[(1,4-dioxan-2-ylmethyl)amino]-3-nitrophenyl}sulfonyl)-2-(1H-pyrrolo[2,3-b]pyridin-5-yloxy)benzamide] | < 10 pM
10 | CC1(C)CC(c2ccc(Cl)cc2)=C(CN2CCN(c3ccc(C(=O)NS(=O)(=O)c4ccc(OCC5COCCO5)c([N+](=O)[O-])c4)c(Oc4cnc5[nH]ccc5c4)c3)CC2)CO1 (centres unmarked) [Compound 32, 4-(4-{[4-(4-chlorophenyl)-6,6-dimethyl-5,6-dihydro-2H-pyran-3-yl]methyl}piperazin-1-yl)-N-{[4-(1,4-dioxan-2-ylmethoxy)-3-nitrophenyl]sulfonyl}-2-(1H-pyrrolo[2,3-b]pyridin-5-yloxy)benzamide] | < 10 pM
11 | CC1(C)CC(c2ccc(Cl)cc2)=C(CN2CCN(c3ccc(C(=O)NS(=O)(=O)c4cnc(OCC5CCOCC5)c(C#N)c4)c(Oc4cnc5[nH]ccc5c4)c3)CC2)CO1 [Compound 35, 4-(4-{[4-(4-chlorophenyl)-6,6-dimethyl-5,6-dihydro-2H-pyran-3-yl]methyl}piperazin-1-yl)-N-{[5-cyano-6-(tetrahydro-2H-pyran-4-ylmethoxy)pyridin-3-yl]sulfonyl}-2-(1H-pyrrolo[2,3-b]pyridin-5-yloxy)benzamide] | < 10 pM
12 | CC1(C)CCC(CN2CCN(c3ccc(C(=O)NS(=O)(=O)c4cnc(OCC5CCOCC5)c(Cl)c4)c(Oc4cnc5[nH]ccc5c4)c3)CC2)=C(c2ccc(Cl)cc2)C1 [Compound 40, 4-(4-{[2-(4-chlorophenyl)-4,4-dimethylcyclohex-1-en-1-yl]methyl}piperazin-1-yl)-N-{[5-chloro-6-(tetrahydro-2H-pyran-4-ylmethoxy)pyridin-3-yl]sulfonyl}-2-(1H-pyrrolo[2,3-b]pyridin-5-yloxy)benzamide] | < 10 pM
13 | CC1(C)CC(c2ccc(Cl)cc2)=C(CN2CCN(c3ccc(C(=O)NS(=O)(=O)c4cnc(OCC5CCOCC5)c(Cl)c4)c(Oc4cnc5[nH]ccc5c4)c3)CC2)CO1 [Compound 41, 4-(4-{[4-(4-chlorophenyl)-6,6-dimethyl-5,6-dihydro-2H-pyran-3-yl]methyl}piperazin-1-yl)-N-{[5-chloro-6-(tetrahydro-2H-pyran-4-ylmethoxy)pyridin-3-yl]sulfonyl}-2-(1H-pyrrolo[2,3-b]pyridin-5-yloxy)benzamide] | < 10 pM
14 | CN1CCC(Nc2ccc(S(=O)(=O)NC(=O)c3ccc(N4CCN(CC5=C(c6ccc(Cl)cc6)CC(C)(C)OC5)CC4)cc3Oc3cnc4[nH]ccc4c3)cc2S(=O)(=O)C(F)(F)F)CC1 [Compound 45, 4-(4-{[4-(4-chlorophenyl)-6,6-dimethyl-5,6-dihydro-2H-pyran-3-yl]methyl}piperazin-1-yl)-N-({4-[(1-methylpiperidin-4-yl)amino]-3-[(trifluoromethyl)sulfonyl]phenyl}sulfonyl)-2-(1H-pyrrolo[2,3-b]pyridin-5-yloxy)benzamide] | < 10 pM
15 | CN1CCC(COc2ncc(S(=O)(=O)NC(=O)c3ccc(N4CCN(CC5=C(c6ccc(Cl)cc6)CC(C)(C)CC5)CC4)cc3Oc3cnc4[nH]ccc4c3)cc2Br)CC1 [Compound 47, N-({5-bromo-6-[(1-methylpiperidin-4-yl)methoxy]pyridin-3-yl}sulfonyl)-4-(4-{[2-(4-chlorophenyl)-4,4-dimethylcyclohex-1-en-1-yl]methyl}piperazin-1-yl)-2-(1H-pyrrolo[2,3-b]pyridin-5-yloxy)benzamide] | < 10 pM
16 | CN1CCC(COc2ccc(S(=O)(=O)NC(=O)c3ccc(N4CCN(CC5=C(c6ccc(Cl)cc6)CC(C)(C)CC5)CC4)cc3Oc3cnc4[nH]ccc4c3)cc2[N+](=O)[O-])CC1 [Compound 48, 4-(4-{[2-(4-chlorophenyl)-4,4-dimethylcyclohex-1-en-1-yl]methyl}piperazin-1-yl)-N-({4-[(1-methylpiperidin-4-yl)methoxy]-3-nitrophenyl}sulfonyl)-2-(1H-pyrrolo[2,3-b]pyridin-5-yloxy)benzamide] | < 10 pM
17 | CC1(C)CCC(CN2CCN(c3ccc(C(=O)NS(=O)(=O)c4ccc(OCC5CCOC(C)(C)C5)c([N+](=O)[O-])c4)c(Oc4cnc5[nH]ccc5c4)c3)CC2)=C(c2ccc(Cl)cc2)C1 (centres unmarked) [Compound 51, 4-(4-{[2-(4-chlorophenyl)-4,4-dimethylcyclohex-1-en-1-yl]methyl}piperazin-1-yl)-N-({4-[(2,2-dimethyltetrahydro-2H-pyran-4-yl)methoxy]-3-nitrophenyl}sulfonyl)-2-(1H-pyrrolo[2,3-b]pyridin-5-yloxy)benzamide] | < 10 pM
18 | CC(=O)N1CCC(Nc2ccc(S(=O)(=O)NC(=O)c3ccc(N4CCN(CC5=C(c6ccc(Cl)cc6)CC(C)(C)CC5)CC4)cc3Oc3cnc4[nH]ccc4c3)cc2[N+](=O)[O-])CC1 [Compound 53, N-({4-[(1-acetylpiperidin-4-yl)amino]-3-nitrophenyl}sulfonyl)-4-(4-{[2-(4-chlorophenyl)-4,4-dimethylcyclohex-1-en-1-yl]methyl}piperazin-1-yl)-2-(1H-pyrrolo[2,3-b]pyridin-5-yloxy)benzamide] | < 10 pM
19 | CC1(C)CCC(CN2CCN(c3ccc(C(=O)NS(=O)(=O)c4ccc(NCCCN5CCOCC5)c([N+](=O)[O-])c4)c(Oc4cnc5[nH]ccc5c4)c3)CC2)=C(c2ccc(Cl)cc2)C1 [Compound 55, 4-(4-{[2-(4-chlorophenyl)-4,4-dimethylcyclohex-1-en-1-yl]methyl}piperazin-1-yl)-N-({4-[(3-morpholin-4-ylpropyl)amino]-3-nitrophenyl}sulfonyl)-2-(1H-pyrrolo[2,3-b]pyridin-5-yloxy)benzamide] | < 10 pM
20 | COCCOCCS(=O)(=O)c1ccc(S(=O)(=O)NC(=O)c2ccc(N3CCN(CC4=C(c5ccc(Cl)cc5)CC(C)(C)CC4)CC3)cc2Oc2cnc3[nH]ccc3c2)cc1Cl [Compound 58, N-[(3-chloro-4-{[2-(2-methoxyethoxyl)ethyl]sulfonyl}phenyl)sulfonyl]-4-(4-{[2-(4-chlorophenyl)-4,4-dimethylcyclohex-1-en-1-yl]methyl}piperazin-1-yl)-2-(1H-pyrrolo[2,3-b]pyridin-5-yloxy)benzamide] | < 10 pM
